The results in this text go back to patent US8710233B2 (Gruenenthal GmbH, priority 2005, dated 2014).

One experiment addresses VR1/TRPV1 receptor (Homo sapiens, UniProt Q8NER1). Briefly: IC50 (human) after pH stimulus. The experiment is classed as cell-based. The conditions noted are these: for IC50: table 4.
The next experiment deals with T1, vanilloid receptor (VR1) (Homo sapiens, UniProt Q8NER1).
T1 construct: expressed in transfected cells; host or cells: CHO K1 cells (ECACC), stably transfected
T1 sequence (Q8NER1 whole entry): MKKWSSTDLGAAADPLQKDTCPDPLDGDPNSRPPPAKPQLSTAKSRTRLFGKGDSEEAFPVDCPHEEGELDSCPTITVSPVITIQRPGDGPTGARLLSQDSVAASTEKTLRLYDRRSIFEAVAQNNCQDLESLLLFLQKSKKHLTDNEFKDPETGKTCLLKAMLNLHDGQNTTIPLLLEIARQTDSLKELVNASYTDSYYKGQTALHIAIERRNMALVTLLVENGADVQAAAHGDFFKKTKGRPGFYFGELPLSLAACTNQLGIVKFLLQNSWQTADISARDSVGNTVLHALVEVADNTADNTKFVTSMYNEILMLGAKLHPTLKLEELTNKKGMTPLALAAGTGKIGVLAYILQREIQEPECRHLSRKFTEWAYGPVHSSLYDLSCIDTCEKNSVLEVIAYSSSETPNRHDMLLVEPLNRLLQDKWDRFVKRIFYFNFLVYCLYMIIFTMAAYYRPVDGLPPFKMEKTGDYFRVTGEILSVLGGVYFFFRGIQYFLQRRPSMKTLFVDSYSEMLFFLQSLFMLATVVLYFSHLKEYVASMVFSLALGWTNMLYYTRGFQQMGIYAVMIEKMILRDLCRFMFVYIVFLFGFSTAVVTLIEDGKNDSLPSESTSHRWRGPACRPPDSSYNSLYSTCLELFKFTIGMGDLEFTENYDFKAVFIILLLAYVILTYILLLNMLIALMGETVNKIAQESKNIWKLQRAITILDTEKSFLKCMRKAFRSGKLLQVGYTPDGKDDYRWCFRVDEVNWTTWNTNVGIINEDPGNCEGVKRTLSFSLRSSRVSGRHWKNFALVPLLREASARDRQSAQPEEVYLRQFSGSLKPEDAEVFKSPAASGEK
As to the kind of experiment: FLIPR Ca2+ influx assay on CHO K1 cells transfected with the VR1 gene (pharmacological method II). The format is cell-based. Particulars: table 4; capsaicin; read-out: Ki (human) Cap. The source says:
In this FLIPR assay, the influx of Ca^2+ is quantified with the assistance of a Ca^2+-sensitive dye (type Fluo-4, Molecular Probes Europe BV, Leiden, Netherlands) in a Fluorescent Imaging Plate Reader (FLIPR, Molecular Devices, Sunnyvale, USA) as described below.
II. Functional Investigations on the Vanilloid Receptor (VR1)
The agonistic or antagonistic action of the substances to be investigated on the vanilloid receptor (VR1) may also be determined with the following assay. According to this assay, the influx of Ca^2+ through the channel is quantified with the assistance of a Ca^2+-sensitive dye (type Fluo-4, Molecular Probes Europe BV, Leiden, Netherlands) in a Fluorescent Imaging Plate Reader (FLIPR, Molecular Devices, Sunnyvale, USA).
Chinese hamster ovary cells (CHO K1 cells, European Collection of Cell Cultures (ECACC), Great Britain) are stably transfected with the VR1 gene. For functional investigations, these cells are plated out onto poly-D-lysine-coated, black 96 well plates with a clear bottom (BD Biosciences, Heidelberg, Germany) at a density of 25,000 cells/well. The cells are incubated overnight at 37° C. and 5% CO2 in a culture medium (Ham's Nutrient Mixture F12, 10 vol. % FCS (foetal calf serum), 18 μg/mL L-proline). On the following day, the cells are incubated with Fluo-4 (Fluo-4 2 μM, Pluronic F127 0.01 vol. %, Molecular Probes in HBSS (Hank's buffered saline solution), Gibco Invitrogen GmbH, Karlsruhe, Germany) for 30 minutes at 37° C. The plates are then washed 3 times with HBSS buffer and, after a further 15 minutes' incubation at room temperature, used for […] measurement in the FLIPR. […] Quantification proceeds by measuring the highest fluorescence intensity (FC, fluorescence counts) over time.
The FLIPR protocol comprises 2 additions of substance. The substances to be tested (10 μM) are firstly pipetted onto the cells and Ca^2+ influx is compared with the control (capsaicin 10 μM) (% activation relative to the Ca^2+ signal after addition of 10 μM of capsaicin). After 5 minutes' incubation, 100 nM of capsaicin are added and the influx of Ca^2+ is again determined.
The percentage inhibition in comparison with the maximum achievable inhibition with 10 μM capsaicin is calculated.

Where [1] appears, read: @ 1 μM, ne = no effect, read-out: inhibition in percent, IC50 (human) after pH stimulus.
Where [2] appears, read: read-out: inhibition in percent, IC50 (human) after pH stimulus.

Chain of VR1/TRPV1 receptor (Q8NER1 whole entry): as above

For `CC(C(=O)NCc1ccc(C(F)(F)F)nc1Nc1ccc(F)cc1)c1ccc(NS(C)(=O)=O)c(F)c1` (centres unmarked) [Compound 112], the inhibition at 1 µM at VR1/TRPV1 receptor (setting [1]) came out at 26%.

On to `CC(C(=O)NCc1ccc(C(F)(F)F)nc1N1CCN(C)CC1)c1ccc(NS(C)(=O)=O)c(F)c1` (centres unmarked) [Compound 134], for which, at VR1/TRPV1 receptor (setting [1]), the inhibition at 1 µM is 15%.

For the molecule `CC(C)OC1CCN(c2nc(C(F)(F)F)ccc2CNC(=O)C(C)c2ccc(NS(C)(=O)=O)c(F)c2)CC1` (centres unmarked) [Compound 162], the inhibition at 0.1 µM at VR1/TRPV1 receptor (setting [2]) worked out at 31%.

`Cc1cc(C(C)C(=O)NCc2ccc(C(F)(F)F)nc2N2CCC(C)CC2)ccc1NS(C)(=O)=O` (centres unmarked) [Compound 196]: on VR1/TRPV1 receptor (setting [2]), the inhibition at 0.01 µM stood at 6% and the inhibition at 0.1 µM came out at 48%.

Turning to `CCCCCCOc1nc(C(C)(C)C)ccc1CNC(=O)C(C)c1ccc(NS(C)(=O)=O)c(F)c1` (centres unmarked) [Compound 236], at VR1/TRPV1 receptor (setting [2]), the inhibition at 0.1 µM came out at 2%.

For `CC(C(=O)NCc1ccc(C(F)(F)F)cc1OC1CCCCC1)c1ccc(NS(C)(=O)=O)c(F)c1` (centres unmarked) [Compound 238], at VR1/TRPV1 receptor (setting [2]), the inhibition at 0.01 µM was determined as 3%.

Take `CC(C(=O)NCc1ccc(C(F)(F)F)cc1N1CCN(c2ccc(C(F)(F)F)cc2)CC1)c1ccc(NS(C)(=O)=O)c(F)c1` (centres unmarked) [Compound 248]: the inhibition at 1 µM on VR1/TRPV1 receptor (setting [1]) worked out at 63%.

`CCCCOc1nc(C(F)(F)F)ccc1CNC(=O)C(C)c1ccc(NS(C)(=O)=O)c(C)c1` (centres unmarked) [Compound 256]: on VR1/TRPV1 receptor (setting [2]), the inhibition at 0.01 µM was 15% and the inhibition at 0.1 µM was 43%.

Regarding `CCCCCCOc1nc(C(F)(F)F)ccc1CNC(=O)C(C)c1ccc(NS(C)(=O)=O)c(C)c1` (centres unmarked) [Compound 257], at VR1/TRPV1 receptor (setting [2]), the inhibition at 0.01 µM is 11% and the inhibition at 0.1 µM was 63%.

Turning to `CC(C(=O)NCc1ccc(C(F)(F)F)nc1N1CCC(CN(C)C)(c2ccccc2)CC1)c1ccc(NS(C)(=O)=O)c(F)c1` (centres unmarked) [Compound 259], the inhibition at 0.1 µM on VR1/TRPV1 receptor (setting [2]) is 0%.

`CC(C(=O)NCc1ccc(C(F)(F)F)nc1N1CCN(C2CCCCC2)CC1)c1ccc(NS(C)(=O)=O)c(F)c1` (centres unmarked) [Compound 260]: on VR1/TRPV1 receptor (setting [2]), the inhibition at 0.1 µM turned out to be 8.5%.

As for `CC(C(=O)NCc1ccc(C(F)(F)F)nc1CCC(C)(C)C)c1ccc(NS(C)(=O)=O)c(F)c1` (centres unmarked) [Compound 263], at VR1/TRPV1 receptor (setting [2]), the inhibition at 0.01 µM came to 4% and the inhibition at 0.1 µM is 52%.

Take `CC1CCCN(c2nc(C(F)(F)F)ccc2CNC(=O)C(C)c2ccc(NS(C)(=O)=O)c(F)c2)C1` (centres unmarked) [Compound 282]: at VR1/TRPV1 receptor (setting [2]), the inhibition at 0.01 µM was 12% and the inhibition at 0.1 µM was determined as 55%.

Take `CC(C(=O)NCc1ccc(C(F)(F)F)nc1N1CCCCC1C)c1ccc(NS(C)(=O)=O)c(F)c1` (centres unmarked) [Compound 283]: at VR1/TRPV1 receptor (setting [2]), the inhibition at 0.01 µM is 11% and the inhibition at 0.1 µM was 43%.

On to `CC(C(=O)NCc1ccc(C(F)(F)F)cc1N1CCN(C2CCCCC2)CC1)c1ccc(NS(C)(=O)=O)c(F)c1` (centres unmarked) [Compound 319], for which, on VR1/TRPV1 receptor (setting [1]), the inhibition at 1 µM was found to be 4%.

In the case of `COc1ccc(-c2nc(C(F)(F)F)ccc2CNC(=O)C(C)c2ccc(NS(C)(=O)=O)c(F)c2)cc1OC` (centres unmarked) [Compound 326], at VR1/TRPV1 receptor (setting [1]), the inhibition at 1 µM is 8%. Besides, the inhibition at 5 µM at VR1/TRPV1 receptor (setting [2]) amounted to 32%.

Regarding `CCCN(CCC)c1nc(C(F)(F)F)ccc1CNC(=O)C(C)c1ccc(NS(C)(=O)=O)c(C)c1` (centres unmarked) [Compound 331], at VR1/TRPV1 receptor (setting [2]), the inhibition at 0.1 µM amounted to 18% and the inhibition at 5 µM is 22%. Moreover, at VR1/TRPV1 receptor (setting [1]), the inhibition at 1 µM was determined as 26%.

With `CCCCC(CCCC)Oc1nc(C(F)(F)F)ccc1CNC(=O)C(C)c1ccc(NS(C)(=O)=O)c(F)c1` (centres unmarked) [Compound 352], the inhibition at 1 µM on VR1/TRPV1 receptor (setting [1]) is 27%.

As for `CC(C)COc1nc(C(C)(C)C)ccc1CNC(=O)C(C)c1ccc(NS(C)(=O)=O)c(F)c1` (centres unmarked) [Compound 353], on VR1/TRPV1 receptor (@ 0.05 μM, read-out: inhibition in percent, IC50 (human) after pH stimulus), the inhibition at 0.05 µM stood at 18%.

Consider `CC(C(=O)NCc1ccc(C(F)(F)F)cc1-c1cccnc1)c1ccc(NS(C)(=O)=O)c(F)c1` (centres unmarked) [Example 46, 2-(3-fluoro-4-(methylsulfonamido)phenyl)-N-(2-(pyridin-3-yl)-4-(trifluoromethyl)benzyl)propanamide], for which, at VR1/TRPV1 receptor (setting [2]), the inhibition at 5 µM came out at 40%. For the same molecule, the Ki on vanilloid receptor (VR1) is 59.4 nM.

As to `CC(C)COc1nc(C(F)(F)F)ccc1CNC(=O)[C@@H](C)c1ccc(NS(C)(=O)=O)c(F)c1` [Example 96, (S)-2-(3-fluoro-4-methylsulfonamido-phenyl)-N-(2-isobutoxy-6-trifluoromethyl-pyridin-3-ylmethyl)-propionamide], it took 30 nM to reach half-maximal inhibition at VR1/TRPV1 receptor (IC50). In addition, the Ki on vanilloid receptor (VR1) is 0.5 nM.

For `CC(C)COc1nc(C(F)(F)F)ccc1CNC(=O)[C@H](C)c1ccc(NS(C)(=O)=O)c(F)c1` [Example 97, (R)-2-(3-fluoro-4-methylsulfonamido-phenyl)-N-(2-isobutoxy-6-trifluoromethyl-pyridin-3-ylmethyl)-propionamide], 2150 nM corresponded to half-maximal inhibition at VR1/TRPV1 receptor (IC50). Also, the Ki at vanilloid receptor (VR1) amounted to 44.5 nM.

Turning to `CC(C)COc1cc(C(F)(F)F)ccc1CNC(=O)C(C)c1ccc(NS(C)(=O)=O)c(F)c1` (centres unmarked) [Example 98, 2-(3-fluoro-4-methylsulfonamido-phenyl)-N-(2-isobutoxy-4-trifluoromethyl-benzyl)-propionamide], at VR1/TRPV1 receptor, the 50% inhibitory concentration (IC50) came to 41 nM. Moreover, the Ki at vanilloid receptor (VR1) was 1.5 nM.

On to `CC(C(=O)NCc1c(CO)cc(C(C)(C)C)nc1OC1CCCC1)c1ccc(NS(C)(=O)=O)c(F)c1` (centres unmarked) [Example 261, N-(6-tert-butyl-2-cyclopentyloxy-4-hydroxymethyl-pyridin-3-ylmethyl)-2-(3-fluoro-4-methylsulfonamido-phenyl)-propionamide], for which the “inhibition in percent, IC50 (human) after pH stimulus” value at VR1/TRPV1 receptor (@ 1 μM, ne = no effect) is “ne @ 1 μM”.

For the molecule `CC(C(=O)NCc1ccc(C(F)(F)F)cc1-c1cccc(Cl)c1)c1ccc(NS(C)(=O)=O)c(F)c1` (centres unmarked) [Example 322, N-(3′-chloro-5-trifluoromethyl-biphenyl-2-ylmethyl)-2-(3-fluoro-4 methylsulfonamido-phenyl)-propionamide], the inhibition at 0.1 µM on VR1/TRPV1 receptor (setting [2]) is 25%. Moreover, on VR1/TRPV1 receptor (setting [1]), the inhibition at 1 µM was determined as 54%.

The molecule `CC(C(=O)NCc1ccc(C(F)(F)F)cc1-c1ccc(F)c(Cl)c1)c1ccc(NS(C)(=O)=O)c(F)c1` (centres unmarked) [Example 324, N-(3′-chloro-4′-fluoro-5-trifluoromethyl-biphenyl-2-ylmethyl)-2-(3-fluoro-4-methylsulfonamido-phenyl)-propionamide] had an IC50 against VR1/TRPV1 receptor of 33 nM.

Take `CCC(C(=O)NCc1ccc(C(F)(F)F)nc1N1CCC(C)CC1)c1ccc(NS(C)(=O)=O)c(F)c1` (centres unmarked) [Example 347, 2-(3-fluoro-4-methylsulfonamido-phenyl)-N-(4-methyl-6′-trifluoromethyl-3,4,5,6-tetrahydro-2H-[1,2′]bipyridinyl-3′-ylmethyl)-butyramide]: the Ki on vanilloid receptor (VR1) stood at 1.6 nM.

Take `CCOC(=O)c1cc(CNC(=O)C(C)c2ccc(NS(C)(=O)=O)c(F)c2)c(N2CCC(C)CC2)cc1C(F)(F)F` (centres unmarked) [Example 351, 5-{[2-(3-fluoro-4-methylsulfonamido-phenyl)-propionylamino]-methyl}-4-(4-methyl-piperidin-1-yl)-2-trifluoromethyl-benzoic acid ethyl ester]: the Ki at vanilloid receptor (VR1) amounted to 44 nM.

`CCCCCOc1nc(C(F)(F)F)ccc1CNC(=O)C(C)c1ccc(NS(C)(=O)=O)c(F)c1` (centres unmarked) [Example 375, 2-(3-fluoro-4-(methylsulfonamido)phenyl)-N-((2-(pentyloxy)-6-(trifluoromethyl)pyridin-3-yl)methyl)propanamide] came in with an IC50 on VR1/TRPV1 receptor of 30 nM.

In the case of `CC1CC(C)CC(Oc2nc(C(F)(F)F)ccc2CNC(=O)C(C)c2ccc(NS(C)(=O)=O)c(F)c2)C1` (centres unmarked) [Example 377, N-((2-(3,5-dimethylcyclohexyloxy)-6-(trifluoromethyl)pyridin-3-yl)methyl)-2-(3-fluoro-4-(methylsulfonamido)phenyl)propanamide], the Ki on vanilloid receptor (VR1) was 3 nM.

As usually defined, the inhibition is the share of the control response that was lost under treatment. What is called Ki is the dissociation constant of the complex between target and ligand, obtained from inhibition or displacement. In general, IC50 refers to the concentration needed to halve the response being measured.
